Measured values published in patent publication US10888553B2, “Use of non-transition metal coordinated dipyridoxyl compounds to prevent and treat chemotherapy-induced PSN” (KARLSSON-TUNER INVEST AS, priority 2016, dated 2021).
Like-named read-outs stand apart in the source and are kept apart here.

Columns and labels:
[1] = Platinum (Pt) urine excretion in rats receiving oxaliplatin i.v. after i.v. mangafodipir, fodipir or saline (Example 2); assay type: in vivo, Wistar rats; conditions: 0-24 h urine; for recovery of oxaliplatin-derived Pt in urine, % of the administered dose: 26.4 μmol/kg i.v. 5 min before oxaliplatin 2 mg/kg i.v., administered Pt 277.5 μg, saline control 31.3%; for increase in Pt-excretion: versus saline control
Description: 2 male Wistar rats (approximately 250 g) were injected i.v., via one of the tail veins, with 0.25 ml mangafodipir (20 mg/kg; Lot no. 303001, Nycomed Imaging AS) or fodipir (17.4 mg/kg; Lot no. PKJ 1285/113-14, Nycomed Imaging AS), each corresponding to 26.4 μmol/kg. Another control rat received saline instead of mangafodipir or fodipir. […] The rats were then immediately placed in metabolic cages for urine collection over a period of 0-24 hours. The urine samples were thereafter stored at −80° C. until Pt analysis. Before analysis, the samples were thawed and extensively shaken to obtain homogenous samples. A five ml aliquot was taken from each sample and 5 ml concentrated nitric acid was added. The samples were then resolved in a microwave oven and thereafter diluted with distilled water. The Pt content of each sample was analyzed by ICP-MS (Inductively Coupled Plasma Mass Spectrometry). […] This sample was treated in an identical manner to that of the urine samples and analyzed for its Pt content. Results are presented as total 0-24 h urine Pt content, expressed as the total amount, as well as, as percentage of the injected dose.

[2] = cited from earlier work; for Mn^2+ content released from fodipir or its metabolites: intravenous, MRI dose 5-10 μmol/kg
[3] = cited from earlier work
[4] = 10 μmol/kg mangafodipir in 14 of 15 cycles, accumulated dose 140 μmol/kg; patient showed PD-like neurological symptoms; cited from earlier work
[5] = patients, single dose, over a 5-day period; cited from earlier work
[6] = in vivo; cited from earlier work
CT26 colon cancer cells = conditions: cited from earlier work
[7] = relative to mangafodipir; cited from earlier work
[8] = Zn^2+ binding to fodipir; cited from earlier work
[9] = Mn^2+ binding to fodipir; cited from earlier work
[10] = Ca^2+ binding to fodipir; cited from earlier work

## mangafodipir
[1]
  recovery of oxaliplatin-derived Pt in urine, % of the administered dose: 33.8%
  increase in Pt-excretion: 8.0%
[2]; MRI dose 5-10 μmol/kg injected
  Mn^2+ that stays bound: 20%
[2]
  Mn^2+ content released from fodipir or its metabolites: About 80%
[2]; listed as Mangafodipir
  Mn^2+ content released from fodipir or its metabolites: about 80%
[3]; after eight cycles with 5 μmol/kg mangafodipir co-treatment (accumulated 40 μmol/kg), before 11.8±5.5 nM
  mean plasma Mn content: 19.8 ± 4.3 nM
[3]; patients with PSN grade 2 or worse on a 1-3 scale
  pre-existing oxaliplatin-induced PSN after combined oxaliplatin and mangafodipir treatment: improved
[4]
  brain MRI finding: increased T1-weighted signal intensity in the basal ganglia

## O=C(O)C(=O)O.[NH-][C@@H]1CCCC[C@H]1[NH-].[Pt+2] [oxaliplatin]
[5]
  Pt dose excreted in feces: 2.1%
  Pt dose excreted in the urine: 53.8%
[6]
  terminal Pt half-life in red blood cells (RBC): about 50 days
  volume of distribution: about 600 litres
CT26 colon cancer cells; oxaliplatin alone
  killing of CT26 cells by oxaliplatin: killed CT26 cells in a concentration-dependent manner

## Cc1ncc(COP(=O)([O-])O)c(CN(CCN(CC(=O)O)Cc2c(COP(=O)([O-])O)cnc(C)c2O)CC(=O)O)c1O.Cc1ncc(COP(=O)([O-])O)c(CN(CCN(CC(=O)O)Cc2c(COP(=O)([O-])O)cnc(C)c2O)CC(=O)O)c1O.Cc1ncc(COP(=O)([O-])O)c(CN(CCN(CC(=O)O)Cc2c(COP(=O)([O-])O)cnc(C)c2O)CC(=O)O)c1O.Cc1ncc(COP(=O)([O-])O)c(CN(CCN(CC(=O)O)Cc2c(COP(=O)([O-])O)cnc(C)c2O)CC(=O)O)c1O.Cc1ncc(COP(=O)([O-])O)c(CN(CCN(CC(=O)O)Cc2c(COP(=O)([O-])O)cnc(C)c2O)CC(=O)O)c1O.[Ca+2].[Ca+2].[Ca+2].[Ca+2].[Mn+2] [calmangafodipir]
[7]
  manganese retention (and brain retention) reduced to: about 50%

## Cc1ncc(COP(=O)(O)O)c(CN(CCN(CC(=O)O)Cc2c(COP(=O)(O)O)cnc(C)c2O)CC(=O)O)c1O [fodipir, N,N′-bis-(pyridoxyl-5-phosphate)-ethylenediamine-N,N′-diacetic acid]
[1]
  recovery of oxaliplatin-derived Pt in urine, % of the administered dose: 43.4%
  increase in Pt-excretion: 40.6%
CT26 colon cancer cells; fodipir 10 μM
  effect of fodipir on cell killing in the lower concentration range of oxaliplatin: additive effect
CT26 colon cancer cells; fodipir 100 μM alone
  cell killing activity of fodipir towards CT26 colon cancer cells: almost complete cell killing activity
CT26 colon cancer cells; fodipir 10, 30, 100 μM
  interference of fodipir with the cancer cell killing ability of oxaliplatin: Neither 10, 30, nor 100 μM fodipir interfered negatively
[8]
  log formation constant (log KML): 18
[9]
  log formation constant (log KML): 15
[10]
  log formation constant (log KML): 9
